Tests used:
HOS = experiment: Calcein AM cytotoxicity, HOS; format: cell-based; settings: Homo sapiens, HOS, 72 h
[1] = test system: Triticum aestivum cv. Hereward leaf tips; experiment: Retention of chlorophyll in excised wheat leaf tips; format: in vivo; settings: chlorophyll retention at the concentration with highest activity
In short: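 Tips of first leaves from 7-day wheat (cv. Hereward) seedlings kept on compound solutions (10^−8 to 10^−4 M, from DMSO stock) for 96 h in the dark at 25 °C. Chlorophyll extracted in 80% ethanol at 80 °C and read at 665 nm. Activity at the best concentration expressed relative to 10^−4 M BAP (100%), five replicates.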

[2] = test system: tobacco callus Nicotiana tabacum L. cv. Wisconsin 38; experiment: Cytokinin-dependent tobacco callus growth; format: cell-based; settings: fresh callus weight at the concentration with highest activity
[3] = test system: Amaranthus caudatus cotyledon/hypocotyl explants; experiment: Amaranthus bioassay, betacyanin content; format: in vivo; settings: betacyanin content at the concentration with highest activity

Structure (SMILES) | IC50 (HOS) | Activity (%) [10^−4 mol · l^−1 BAP = 100%] [1] | Activity (%) [10^−4 mol · l^−1 BAP = 100%] [2] | activity (%) [10^−5 mol · l^−1 BAP = 100%] [3]
Fc1cccc(CNc2ncnc3nc[nH]c23)c1 [6-(3-fluorobenzylamino)purine] | > 167 µM | 200 (±25) % | 135 (±8) % | 140 (±5) %
Ic1cccc(CNc2ncnc3nc[nH]c23)c1 [6-(3-iodobenzylamino)purine] | > 167 µM | 83.5 (±23) % | 76 (±8) % | 79 (±3) %
Cc1ccccc1CNc1ncnc2nc[nH]c12 [6-(2-methylbenzylamino)purine] | > 167 µM | 158 (±29) % | 118 (±3) % | 98 (±22) %
Fc1ccccc1CNc1ncnc2nc[nH]c12 [6-(2-fluorobenzylamino)purine] | > 167 µM | 169 (±20) % | 111 (±21) % | 116 (±3) %
COc1cccc(CNc2ncnc3nc[nH]c23)c1 [6-(3-methoxybenzylamino)purine] | > 167 µM | 178 (±16) % | 76 (±20) % | 90 (±16) %
Cc1ccc(CNc2ncnc3nc[nH]c23)cc1 [6-(4-methylbenzylamino)purine] | > 167 µM | 35 (±23) % | 52 (±8) % | 26 (±10) %
Oc1ccccc1CNc1ncnc2nc[nH]c12 [ortho-topolin, 6-(2-hydroxybenzylamino)purine] | > 167 µM |  |  | 
Oc1cccc(CNc2ncnc3nc[nH]c23)c1 [meta-topolin, 6-(3-hydroxybenzylamino)purine] | > 167 µM |  |  | 
